Here are results for 41 compounds from patent US20050197350A1, “Novel quinoline, tetrahydroquinazoline, and pyrimidine derivatives and methods of treatment related to the use thereof” (TAISHO PHARMACEUTICAL CO., LTD., priority 2003, published 2005).

This assay deals with MCH receptors. The assay can be described thus: MCH receptor activity class (method not given). The note with it: class by percent of control at 10^-7 M or IC50.

In the case of `CN(C)c1nc(N[C@H]2CC[C@@H](CNCc3ccc(N(C)C)c4ccccc34)CC2)nc2c1CCCC2` [compound 1402], the class is given as 2 (Class 2: The value of percent of control at 10^−7 M was from 40% to 60% or the value of IC′50 was from 50 nM to 200 nM.).

For `COc1cc(OC)c(CNC[C@H]2CC[C@@H](Nc3nc4c(c(N(C)C)n3)CCCC4)CC2)c(OC)c1` [compound 1403], the class is 1 (Class 1: The value of percent of control at 10^−7 M was less than 40% or the value of IC50 was less than 50 nM.).

Consider `CN(C)c1nc(N[C@H]2CC[C@@H](CNCc3cc(Cl)cc(Br)c3O)CC2)nc2c1CCCC2` [compound 1404], for which the class is 2 (Class 2: The value of percent of control at 10^−7 M was from 40% to 60% or the value of IC′50 was from 50 nM to 200 nM.).

Consider `CN(C)c1nc(N[C@H]2CC[C@@H](CNCc3cccc(C#N)c3)CC2)nc2c1CCCC2` [compound 1405], for which the class is 3 (Class 3 The value of percent of control at 10^−7 M was more than 60% or the value of IC50 was more than 200 nM.).

For `COc1ccc(F)c(CNC[C@H]2CC[C@@H](Nc3nc4c(c(N(C)C)n3)CCCC4)CC2)c1` [compound 1406], the class was 3 (Class 3 The value of percent of control at 10^−7 M was more than 60% or the value of IC50 was more than 200 nM.).

For `CN(C)c1nc(N[C@H]2CC[C@@H](CNCc3ccccc3SC(F)(F)F)CC2)nc2c1CCCC2` [compound 1407], the class was 3 (Class 3 The value of percent of control at 10^−7 M was more than 60% or the value of IC50 was more than 200 nM.).

On to `CCOc1ccc(Br)cc1CNC[C@H]1CC[C@@H](Nc2nc3c(c(N(C)C)n2)CCCC3)CC1` [compound 1408], for which the class is reported as 3 (Class 3 The value of percent of control at 10^−7 M was more than 60% or the value of IC50 was more than 200 nM.).

For the compound `COc1ccc(CNC[C@H]2CC[C@@H](Nc3nc4c(c(N(C)C)n3)CCCC4)CC2)c(OC)c1C` [compound 1409], the class was 3 (Class 3 The value of percent of control at 10^−7 M was more than 60% or the value of IC50 was more than 200 nM.).

Take `CN(C)c1nc(N[C@H]2CC[C@@H](CNCc3ccccc3OC(F)(F)F)CC2)nc2c1CCCC2` [compound 1410]: the class is 3 (Class 3 The value of percent of control at 10^−7 M was more than 60% or the value of IC50 was more than 200 nM.).

On to `CCOc1ccc(OCC)c(CNC[C@H]2CC[C@@H](Nc3nc4c(c(N(C)C)n3)CCCC4)CC2)c1` [compound 1411], for which the class is given as 1 (Class 1: The value of percent of control at 10^−7 M was less than 40% or the value of IC50 was less than 50 nM.).

Regarding `CCOc1ccc(CNC[C@H]2CC[C@@H](Nc3nc4c(c(N(C)C)n3)CCCC4)CC2)c(OCC)c1` [compound 1412], the class is listed as 1 (Class 1: The value of percent of control at 10^−7 M was less than 40% or the value of IC50 was less than 50 nM.).

Take `COc1c(Br)cc(Br)cc1CNC[C@H]1CC[C@@H](Nc2nc3c(c(N(C)C)n2)CCCC3)CC1` [compound 1413]: the class is recorded as 1 (Class 1: The value of percent of control at 10^−7 M was less than 40% or the value of IC50 was less than 50 nM.).

On to `CN(C)c1nc(N[C@H]2CC[C@@H](CNCc3ccccc3OC(F)F)CC2)nc2c1CCCC2` [compound 1414], for which the class is on record as 3 (Class 3 The value of percent of control at 10^−7 M was more than 60% or the value of IC50 was more than 200 nM.).

As to `COc1ccc(F)cc1CNC[C@H]1CC[C@@H](Nc2nc3c(c(N(C)C)n2)CCCC3)CC1` [compound 1415], the class is on record as 3 (Class 3 The value of percent of control at 10^−7 M was more than 60% or the value of IC50 was more than 200 nM.).

As for `COc1cc(OC)c(OC)cc1CNC[C@H]1CC[C@@H](Nc2nc3c(c(N(C)C)n2)CCCC3)CC1` [compound 1417], the class is 1 (Class 1: The value of percent of control at 10^−7 M was less than 40% or the value of IC50 was less than 50 nM.).

As to `COc1cccc(CNC[C@H]2CC[C@@H](Nc3nc4c(c(N(C)C)n3)CCCC4)CC2)c1OC` [compound 1418], the class is on record as 3 (Class 3 The value of percent of control at 10^−7 M was more than 60% or the value of IC50 was more than 200 nM.).

With `C=CCOc1ccccc1CNC[C@H]1CC[C@@H](Nc2nc3c(c(N(C)C)n2)CCCC3)CC1` [compound 1419], the class is reported as 3 (Class 3 The value of percent of control at 10^−7 M was more than 60% or the value of IC50 was more than 200 nM.).

Regarding `CN(C)c1nc(N[C@H]2CC[C@@H](CNCc3csc4ccccc34)CC2)nc2c1CCCC2` [compound 1420], the class was 3 (Class 3 The value of percent of control at 10^−7 M was more than 60% or the value of IC50 was more than 200 nM.).

Turning to `CN(C)c1nc(N[C@H]2CC[C@@H](CNCc3cn(C)c4ccccc34)CC2)nc2c1CCCC2` [compound 1421], the class is given as 3 (Class 3 The value of percent of control at 10^−7 M was more than 60% or the value of IC50 was more than 200 nM.).

In the case of `Cc1ccc(CNC[C@H]2CC[C@@H](Nc3nc4c(c(N(C)C)n3)CCCC4)CC2)s1` [compound 1422], the class is 3 (Class 3 The value of percent of control at 10^−7 M was more than 60% or the value of IC50 was more than 200 nM.).

For `Cc1cc(C)c(CNC[C@H]2CC[C@@H](Nc3nc4c(c(N(C)C)n3)CCCC4)CC2)c(C)c1` [compound 1423], the class was 3 (Class 3 The value of percent of control at 10^−7 M was more than 60% or the value of IC50 was more than 200 nM.).

On to `CN(C)c1nc(N[C@H]2CC[C@@H](CNCc3ccc4c(c3)OCO4)CC2)nc2c1CCCC2` [compound 1424], for which the class was 3 (Class 3 The value of percent of control at 10^−7 M was more than 60% or the value of IC50 was more than 200 nM.).

Take `CN(C)c1nc(N[C@H]2CC[C@@H](CNCc3ccsc3)CC2)nc2c1CCCC2` [compound 1425]: the class is listed as 3 (Class 3 The value of percent of control at 10^−7 M was more than 60% or the value of IC50 was more than 200 nM.).

As to `Cc1cccc(CNC[C@H]2CC[C@@H](Nc3nc4c(c(N(C)C)n3)CCCC4)CC2)c1` [compound 1426], the class is listed as 3 (Class 3 The value of percent of control at 10^−7 M was more than 60% or the value of IC50 was more than 200 nM.).

`Cc1ccccc1CNC[C@H]1CC[C@@H](Nc2nc3c(c(N(C)C)n2)CCCC3)CC1` [compound 1427]: the class was 3 (Class 3 The value of percent of control at 10^−7 M was more than 60% or the value of IC50 was more than 200 nM.).

In the case of `Cc1ccc(CNC[C@H]2CC[C@@H](Nc3nc4c(c(N(C)C)n3)CCCC4)CC2)cc1` [compound 1428], the class is given as 3 (Class 3 The value of percent of control at 10^−7 M was more than 60% or the value of IC50 was more than 200 nM.).

Turning to `CN(C)c1nc(N[C@H]2CC[C@@H](CNCc3cc(Cl)cc(Cl)c3)CC2)nc2c1CCCC2` [compound 1429], the class is recorded as 3 (Class 3 The value of percent of control at 10^−7 M was more than 60% or the value of IC50 was more than 200 nM.).

Consider `COc1cc(CNC[C@H]2CC[C@@H](Nc3nc4c(c(N(C)C)n3)CCCC4)CC2)cc2c1OCO2` [compound 1430], for which the class is 2 (Class 2: The value of percent of control at 10^−7 M was from 40% to 60% or the value of IC′50 was from 50 nM to 200 nM.).

As to `COc1cc(CNC[C@H]2CC[C@@H](Nc3nc4c(c(N(C)C)n3)CCCC4)CC2)cc(Br)c1OC` [compound 1431], the class was 3 (Class 3 The value of percent of control at 10^−7 M was more than 60% or the value of IC50 was more than 200 nM.).

For `COc1ccc(CNC[C@H]2CC[C@@H](Nc3nc4c(c(N(C)C)n3)CCCC4)CC2)cc1C` [compound 1432], the class is reported as 3 (Class 3 The value of percent of control at 10^−7 M was more than 60% or the value of IC50 was more than 200 nM.).

For `COc1cc(Br)c(CNC[C@H]2CC[C@@H](Nc3nc4c(c(N(C)C)n3)CCCC4)CC2)cc1OC` [compound 1433], the class is reported as 3 (Class 3 The value of percent of control at 10^−7 M was more than 60% or the value of IC50 was more than 200 nM.).

Consider `Cc1oc(-c2ccccc2)cc1CNC[C@H]1CC[C@@H](Nc2nc3c(c(N(C)C)n2)CCCC3)CC1` [compound 1434], for which the class is listed as 3 (Class 3 The value of percent of control at 10^−7 M was more than 60% or the value of IC50 was more than 200 nM.).

Regarding `COc1ccc(CNC[C@H]2CC[C@@H](Nc3nc4c(c(N(C)C)n3)CCCC4)CC2)cc1OC` [compound 1435], the class was 3 (Class 3 The value of percent of control at 10^−7 M was more than 60% or the value of IC50 was more than 200 nM.).

`Cc1cc(CNC[C@H]2CC[C@@H](Nc3nc4c(c(N(C)C)n3)CCCC4)CC2)ccc1O` [compound 1436]: the class is on record as 2 (Class 2: The value of percent of control at 10^−7 M was from 40% to 60% or the value of IC′50 was from 50 nM to 200 nM.).

With `COc1cc(C)c(CNC[C@H]2CC[C@@H](Nc3nc4c(c(N(C)C)n3)CCCC4)CC2)cc1C` [compound 1437], the class is recorded as 2 (Class 2: The value of percent of control at 10^−7 M was from 40% to 60% or the value of IC′50 was from 50 nM to 200 nM.).

As for `COc1cccc(CNC[C@H]2CC[C@@H](Nc3nc4c(c(N(C)C)n3)CCCC4)CC2)c1O` [compound 1438], the class was 3 (Class 3 The value of percent of control at 10^−7 M was more than 60% or the value of IC50 was more than 200 nM.).

In the case of `CN(C)c1nc(N[C@H]2CC[C@@H](CNCc3cc(C(F)(F)F)cc(Cl)c3F)CC2)nc2c1CCCC2` [compound 1439], the class was 3 (Class 3 The value of percent of control at 10^−7 M was more than 60% or the value of IC50 was more than 200 nM.).

Turning to `CN(C)c1nc(N[C@H]2CC[C@@H](CNCc3cc(F)cc(C(F)(F)F)c3)CC2)nc2c1CCCC2` [compound 1440], the class is reported as 3 (Class 3 The value of percent of control at 10^−7 M was more than 60% or the value of IC50 was more than 200 nM.).

Consider `COc1cc(CNC[C@H]2CC[C@@H](Nc3nc4c(c(N(C)C)n3)CCCC4)CC2)cc(F)c1O` [compound 1441], for which the class is recorded as 2 (Class 2: The value of percent of control at 10^−7 M was from 40% to 60% or the value of IC′50 was from 50 nM to 200 nM.).

Consider `COc1cc(F)c(CNC[C@H]2CC[C@@H](Nc3nc4c(c(N(C)C)n3)CCCC4)CC2)cc1OC` [compound 1442], for which the class was 3 (Class 3 The value of percent of control at 10^−7 M was more than 60% or the value of IC50 was more than 200 nM.).

For the compound `CCc1ccccc1CNC[C@H]1CC[C@@H](Nc2nc3c(c(N(C)C)n2)CCCC3)CC1` [compound 1443], the class is listed as 3 (Class 3 The value of percent of control at 10^−7 M was more than 60% or the value of IC50 was more than 200 nM.).
